Patent publication US8574563B2 (Bristol-Myers Squibb Company, priority 2006, dated 2013)

System: HCV 1b-377-neo replicon cells
Test: HCV replicon assay, HCV 1b-377-neo replicon cells (1b FRET)
Format: cell-based, Hepatitis C virus genotype 1b
Conditions: Hepatitis C virus, HCV 1b-377-neo replicon cells; HCV 1b genotype; read-out: EC50 range against HCV 1b (Table 2, Range)
How it was run: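 Compounds tested in HCV genotype 1b-377-neo replicon cells with a FRET read-out. Cells resistant to a reference NS5A inhibitor through a Y2065H NS5A mutation were run alongside wild-type cells.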

| Compound | EC50 |
| --- | --- |
| CCN(CC)[C@H]1CC[C@@H](C(=O)N2CCC[C@H]2c2ncc(-c3ccc(-c4ccc(-c5cnc([C@@H]6CCCN6C(=O)[C@H]6CCCC[C@H]6NC(=O)OC)[nH]5)cc4)cc3)[nH]2)CC1 [cj-97, methyl ((1R,2S)-2-(((2S)-2-(5-(4′-(2-((2S)-1-((cis-4-(diethylamino)cyclohexyl)carbonyl)-2-pyrrolidinyl)-1H-imidazol-5-yl)-4-biphenylyl)-1H-imidazol-2-yl)-1-pyrrolidinyl)carbonyl)cyclohexyl)carbamate] | 0.001 to 0.999 nM |
| COC(=O)N[C@@H]1CCCC[C@@H]1C(=O)N1CCC[C@H]1c1ncc(-c2ccc(-c3ccc(-c4cnc([C@@H]5CCCN5C(=O)[C@H](NC(C)=O)c5ccccc5)[nH]4)cc3)cc2)[nH]1 [cj-98, methyl ((1R,2S)-2-(((2S)-2-(5-(4′-(2-((2S)-1-((2R)-2-acetamido-2-phenylacetyl)-2-pyrrolidinyl)-1H-imidazol-5-yl)-4-biphenylyl)-1H-imidazol-2-yl)-1-pyrrolidinyl)carbonyl)cyclohexyl)carbamate] | 0.001 to 0.999 nM |
| COC(=O)N[C@@H](Cc1c[nH]c2ccccc12)C(=O)N1CCC[C@H]1c1ncc(-c2ccc(-c3ccc(-c4cnc([C@@H]5CCCN5C(=O)[C@@H](NC(=O)OC)C(C)C)[nH]4)cc3)cc2)[nH]1 [cj-99, methyl ((1S)-1-(((2S)-2-(5-(4′-(2-((2S)-1-((2S)-3-(1H-indol-3-yl)-2-((methoxycarbonyl)amino)propanoyl)-2-pyrrolidinyl)-1H-imidazol-5-yl)-4-biphenylyl)-1H-imidazol-2-yl)-1-pyrrolidinyl)carbonyl)-2-methylpropyl)carbamate] | 0.001 to 0.999 nM |
| COC(=O)N[C@@H](Cc1c[nH]c2ccccc12)C(=O)N1CCC[C@H]1c1ncc(-c2ccc(-c3ccc(-c4cnc([C@@H]5CCCN5C(=O)[C@@H](NC(=O)OC)[C@@H](C)OC)[nH]4)cc3)cc2)[nH]1 [cj-100, methyl ((1S)-1-(1H-indol-3-ylmethyl)-2-((2S)-2-(5-(4′-(2-((2S)-1-((2S,3R)-3-methoxy-2-((methoxycarbonyl)amino)butanoyl)-2-pyrrolidinyl)-1H-imidazol-5-yl)-4-biphenylyl)-1H-imidazol-2-yl)-1-pyrrolidinyl)-2-oxoethyl)carbamate] | 0.001 to 0.999 nM |
| CCN(CC)[C@@H](C(=O)N1CCC[C@H]1c1ncc(-c2ccc(-c3ccc(-c4cnc([C@@H]5CCCN5C(=O)[C@H](Cc5c[nH]c6ccccc56)NC(=O)OC)[nH]4)cc3)cc2)[nH]1)c1ccccc1 [cj-101, methyl ((1S)-2-((2S)-2-(5-(4′-(2-((2S)-1-((2R)-2-(diethylamino)-2-phenylacetyl)-2-pyrrolidinyl)-1H-imidazol-5-yl)-4-biphenylyl)-1H-imidazol-2-yl)-1-pyrrolidinyl)-1-(1H-indol-3-ylmethyl)-2-oxoethyl)carbamate] | 0.001 to 0.999 nM |
| COC(=O)N[C@@H](C)C(=O)N1CCC[C@H]1c1ncc(-c2ccc(-c3ccc(-c4cnc([C@@H]5CCCN5C(=O)[C@H](Cc5c[nH]c6ccccc56)NC(=O)OC)[nH]4)cc3)cc2)[nH]1 [cj-102, methyl ((1S)-2-((2S)-2-(5-(4′-(2-((2S)-1-((2S)-3-(1H-indol-3-yl)-2-((methoxycarbonyl)amino)propanoyl)-2-pyrrolidinyl)-1H-imidazol-5-yl)-4-biphenylyl)-1H-imidazol-2-yl)-1-pyrrolidinyl)-1-methyl-2-oxoethyl)carbamate] | 0.001 to 0.999 nM |
| COC(=O)N[C@@H](Cc1ccc(CN)cc1)C(=O)N1CCC[C@H]1c1ncc(-c2ccc(-c3ccc(-c4cnc([C@@H]5CCCN5C(=O)[C@@H](NC(=O)OC)C(C)C)[nH]4)cc3)cc2)[nH]1 [cj-103, methyl ((1S)-1-(4-(aminomethyl)benzyl)-2-((2S)-2-(5-(4′-(2-((2S)-1-((2S)-2-((methoxycarbonyl)amino)-3-methylbutanoyl)-2-pyrrolidinyl)-1H-imidazol-5-yl)-4-biphenylyl)-1H-imidazol-2-yl)-1-pyrrolidinyl)-2-oxoethyl)carbamate] | 0.001 to 0.999 nM |
| COC(=O)N[C@@H](Cc1ccc(OCc2ccccc2)cc1)C(=O)N1CCC[C@H]1c1ncc(-c2ccc(-c3ccc(-c4cnc([C@@H]5CCCN5C(=O)[C@@H](NC(=O)OC)C(C)C)[nH]4)cc3)cc2)[nH]1 [cj-104, methyl ((1S)-1-(((2S)-2-(5-(4′-(2-((2S)-1-(O-benzyl-N-(methoxycarbonyl)-L-tyrosyl)-2-pyrrolidinyl)-1H-imidazol-5-yl)-4-biphenylyl)-1H-imidazol-2-yl)-1-pyrrolidinyl)carbonyl)-2-methylpropyl)carbamate] | 0.001 to 0.999 nM |
| COC(=O)N[C@@H](Cc1ccc(OCc2ccccc2)cc1)C(=O)N1CCC[C@H]1c1ncc(-c2ccc(-c3ccc(-c4cnc([C@@H]5CCCN5C(=O)[C@@H](NC(=O)OC)[C@@H](C)OC)[nH]4)cc3)cc2)[nH]1 [cj-105, methyl ((1S,2R)-1-(((2S)-2-(5-(4′-(2-((2S)-1-(O-benzyl-N-(methoxycarbonyl)-L-tyrosyl)-2-pyrrolidinyl)-1H-imidazol-5-yl)-4-biphenylyl)-1H-imidazol-2-yl)-1-pyrrolidinyl)carbonyl)-2-methoxypropyl)carbamate] | 0.001 to 0.999 nM |
| CCN(CC)[C@@H](C(=O)N1CCC[C@H]1c1ncc(-c2ccc(-c3ccc(-c4cnc([C@@H]5CCCN5C(=O)[C@H](Cc5ccc(OCc6ccccc6)cc5)NC(=O)OC)[nH]4)cc3)cc2)[nH]1)c1ccccc1 [cj-106, methyl ((1S)-1-(4-(benzyloxy)benzyl)-2-((2S)-2-(5-(4′-(2-((2S)-1-((2R)-2-(diethylamino)-2-phenylacetyl)-2-pyrrolidinyl)-1H-imidazol-5-yl)-4-biphenylyl)-1H-imidazol-2-yl)-1-pyrrolidinyl)-2-oxoethyl)carbamate] | 0.001 to 0.999 nM |
| COC(=O)N[C@@H](C)C(=O)N1CCC[C@H]1c1ncc(-c2ccc(-c3ccc(-c4cnc([C@@H]5CCCN5C(=O)[C@H](Cc5ccc(OCc6ccccc6)cc5)NC(=O)OC)[nH]4)cc3)cc2)[nH]1 [cj-107, methyl ((1S)-1-(4-(benzyloxy)benzyl)-2-((2S)-2-(5-(4′-(2-((2S)-1-(N-(methoxycarbonyl)-L-alanyl)-2-pyrrolidinyl)-1H-imidazol-5-yl)-4-biphenylyl)-1H-imidazol-2-yl)-1-pyrrolidinyl)-2-oxoethyl)carbamate] | 0.001 to 0.999 nM |
| COC(=O)N[C@@H](C)C(=O)N1CCC[C@H]1c1ncc(-c2ccc(-c3ccc(-c4cnc([C@@H]5CCCN5C(=O)[C@@H]5CCC[C@H]5NC(=O)OC)[nH]4)cc3)cc2)[nH]1 [cj-108, methyl ((1R,2R)-2-(((2S)-2-(5-(4′-(2-((2S)-1-(N-(methoxycarbonyl)-L-alanyl)-2-pyrrolidinyl)-1H-imidazol-5-yl)-4-biphenylyl)-1H-imidazol-2-yl)-1-pyrrolidinyl)carbonyl)cyclopentyl)carbamate] | 0.001 to 0.999 nM |
| CCN(CC)[C@@H](C(=O)N1CCC[C@H]1c1ncc(-c2ccc(-c3ccc(-c4cnc([C@@H]5CCCN5C(=O)[C@@H]5CCC[C@H]5NC(=O)OC)[nH]4)cc3)cc2)[nH]1)c1ccccc1 [cj-109, methyl ((1R,2R)-2-(((2S)-2-(5-(4′-(2-((2S)-1-((2R)-2-(diethylamino)-2-phenylacetyl)-2-pyrrolidinyl)-1H-imidazol-5-yl)-4-biphenylyl)-1H-imidazol-2-yl)-1-pyrrolidinyl)carbonyl)cyclopentyl)carbamate] | 0.001 to 0.999 nM |
| COC(=O)N[C@@H](C(=O)N1CCC[C@H]1c1ncc(-c2ccc(-c3ccc(-c4cnc([C@@H]5CCCN5C(=O)[C@@H]5CCC[C@H]5NC(=O)OC)[nH]4)cc3)cc2)[nH]1)c1ccccc1 [cj-110, methyl ((1R)-2-((2S)-2-(5-(4′-(2-((2S)-1-(((1R,2R)-2-((methoxycarbonyl)amino)cyclopentyl)carbonyl)-2-pyrrolidinyl)-1H-imidazol-5-yl)-4-biphenylyl)-1H-imidazol-2-yl)-1-pyrrolidinyl)-2-oxo-1-phenylethyl)carbamate] | 0.001 to 0.999 nM |
| COC(=O)N[C@@H](Cc1ccc(O)cc1)C(=O)N1CCC[C@H]1c1ncc(-c2ccc(-c3ccc(-c4cnc([C@@H]5CCCN5C(=O)[C@@H](NC(=O)OC)C(C)C)[nH]4)cc3)cc2)[nH]1 [cj-111, methyl ((1S)-1-(4-hydroxybenzyl)-2-((2S)-2-(5-(4′-(2-((2S)-1-((2S)-2-((methoxycarbonyl)amino)-3-methylbutanoyl)-2-pyrrolidinyl)-1H-imidazol-5-yl)-4-biphenylyl)-1H-imidazol-2-yl)-1-pyrrolidinyl)-2-oxoethyl)carbamate] | 0.001 to 0.999 nM |
| CCN(CC)[C@@H](C(=O)N1CCC[C@H]1c1ncc(-c2ccc(-c3ccc(-c4cnc([C@@H]5CCCN5C(=O)[C@H](Cc5ccc(O)cc5)NC(=O)OC)[nH]4)cc3)cc2)[nH]1)c1ccccc1 [cj-112, methyl ((1S)-2-((2S)-2-(5-(4′-(2-((2S)-1-((2R)-2-(diethylamino)-2-phenylacetyl)-2-pyrrolidinyl)-1H-imidazol-5-yl)-4-biphenylyl)-1H-imidazol-2-yl)-1-pyrrolidinyl)-1-(4-hydroxybenzyl)-2-oxoethyl)carbamate] | 0.001 to 0.999 nM |
| COC(=O)N[C@@H](C)C(=O)N1CCC[C@H]1c1ncc(-c2ccc(-c3ccc(-c4cnc([C@@H]5CCCN5C(=O)[C@H](Cc5ccc(O)cc5)NC(=O)OC)[nH]4)cc3)cc2)[nH]1 [cj-113, methyl ((1S)-1-(4-hydroxybenzyl)-2-((2S)-2-(5-(4′-(2-((2S)-1-(N-(methoxycarbonyl)-L-alanyl)-2-pyrrolidinyl)-1H-imidazol-5-yl)-4-biphenylyl)-1H-imidazol-2-yl)-1-pyrrolidinyl)-2-oxoethyl)carbamate] | 0.001 to 0.999 nM |
| COC(=O)N[C@@H](Cc1ccc(CNC(C)=O)cc1)C(=O)N1CCC[C@H]1c1ncc(-c2ccc(-c3ccc(-c4cnc([C@@H]5CCCN5C(=O)[C@@H](NC(=O)OC)C(C)C)[nH]4)cc3)cc2)[nH]1 [cj-114, methyl ((1S)-1-(4-(acetamidomethyl)benzyl)-2-((2S)-2-(5-(4′-(2-((2S)-1-((2S)-2-((methoxycarbonyl)amino)-3-methylbutanoyl)-2-pyrrolidinyl)-1H-imidazol-5-yl)-4-biphenylyl)-1H-imidazol-2-yl)-1-pyrrolidinyl)-2-oxoethyl)carbamate] | 0.001 to 0.999 nM |
